Laboratory results as given in patent US10316035B2, “Triazolopyridine inhibitors of myeloperoxidase” (BRISTOL-MYERS SQUIBB COMPANY, priority 2015, dated 2019).
pIC50: −log10 of the molar value. Counter-ions that a name gives are not always drawn.

Target: T1, myeloperoxidase (MPO) (Homo sapiens, UniProt P05164)
T1 sequence (P05164 49-745): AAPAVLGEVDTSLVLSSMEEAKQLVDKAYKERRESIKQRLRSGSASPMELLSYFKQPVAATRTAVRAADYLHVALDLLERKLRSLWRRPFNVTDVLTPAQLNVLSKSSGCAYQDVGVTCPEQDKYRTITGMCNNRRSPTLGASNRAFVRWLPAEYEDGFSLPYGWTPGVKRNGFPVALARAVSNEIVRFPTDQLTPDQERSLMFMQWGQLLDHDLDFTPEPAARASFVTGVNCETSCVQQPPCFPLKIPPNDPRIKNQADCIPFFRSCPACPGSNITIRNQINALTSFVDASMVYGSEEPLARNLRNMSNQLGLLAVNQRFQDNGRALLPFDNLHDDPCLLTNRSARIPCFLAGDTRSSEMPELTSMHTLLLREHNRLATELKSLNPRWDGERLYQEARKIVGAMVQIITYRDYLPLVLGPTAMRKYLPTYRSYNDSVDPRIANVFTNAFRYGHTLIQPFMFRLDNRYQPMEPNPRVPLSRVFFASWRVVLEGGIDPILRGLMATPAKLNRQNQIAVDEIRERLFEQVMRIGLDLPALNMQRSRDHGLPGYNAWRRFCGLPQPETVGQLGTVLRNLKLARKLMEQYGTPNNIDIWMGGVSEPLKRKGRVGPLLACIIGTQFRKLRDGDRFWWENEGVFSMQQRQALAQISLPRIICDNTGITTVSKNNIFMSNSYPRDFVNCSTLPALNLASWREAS
Assay: MPO peroxidation assay (Amplex Red assay)
Assay type: biochemical
Conditions: not given
Method: MPO Peroxidation Assay (Amplex Red Assay)
MPO peroxidation activity was measured in 100 mM KPi (pH 7.4) by utilizing the non-fluorescent reagent Amplex Red (Invitrogen catalog # A12222) which can be oxidized to the highly fluorescent resorufin. Amplex Red is oxidized by the peroxidase action of MPO to resorufin. Reactions were carried out in 50 μL total volume by adding a 25 μL mixture of 200 pM myeloperoxidase and 40 nM H2O2(Sigma #349887) to 100 nL inhibitor in 100% DMSO in a 384 well Perkin Elmer Optiplate. Enzyme and compound were preincubated for ten minutes at room temperature.
After the ten minute preincubation, 25 μL of an Amplex Red mixture containing 200 μM Amplex Red and 10 mM H2O2 was added to the plate. Kinetic determinations were carried out immediately on a Perkin Elmer Envision (15 minute kinetic read, Ex: 535 nm, Em: 590 nm).
IC50 values were calculated by determining the slope of the linear portion of the kinetic trace ([…]), and using that calculated slope to determine % inhibition occurring at each concentration of inhibitor using the following equation:
[formula] where A=minimal Y value (activity level of inhibited sample), B=maximal Y value (activity level of uninhibited sample), C=Log IC50, D=Hill Slope, x=concentration of inhibitor. MPO Chlorination Assay (APF Assay)

| pIC50 | Structure (SMILES) |
| --- | --- |
| 7.00 to 9.00 | Nc1cc(OCc2cccc(-c3cccc(F)c3)c2)c2nn[nH]c2n1 [Example 91, 7-((3′-Fluorobiphenyl-3-yl)methoxy)-3H-[1,2,3]triazolo[4,5-b]pyridin-5-amine] |

Same assay, conditions: MPO peroxidation, potency range class; read-out: Amplex Red IC50

| Structure (SMILES) | pIC50 |
| --- | --- |
| Nc1cc(OCc2cc(C(=O)N3CCC3)ccc2Cl)c2nn[nH]c2n1 [Example 182, (3-((5-amino-3H-[1,2,3]triazolo [4,5-b]pyridin-7-yloxy)methyl)-4-chlorophenyl)(azetidin-1-yl)methanone] | 6.00 to 7.00 |
| Nc1cc(OCc2cc(C(=O)N3CCNC(=O)C3)ccc2F)c2nn[nH]c2n1 [Example 169, 4-(3-((5-amino-3H-[1,2,3]triazolo [4,5-b]pyridin-7-yloxy)methyl)-4-fluorobenzoyl)piperazin-2-one] | 6.00 to 7.00 |
| Nc1cc(OCc2cccc(Oc3ccccc3)c2)c2nn[nH]c2n1 [Example 16, 7-(3-Phenoxybenzyloxy)-3H-[1,2,3]triazolo[4,5-b]pyridin-5-amine] | 6.00 to 7.00 |
| CCN(CCO)C(=O)c1ccc(Cl)c(COc2cc(N)nc3[nH]nnc23)c1 [Example 184, 3-((5-amino-3H-[1,2,3]triazolo [4,5-b]pyridin-7-yloxy)methyl)-4-chloro-N-ethyl-N-(2-hydroxyethyl) benzamide] | 6.00 to 7.00 |
| CN(CCO)C(=O)c1ccc(F)c(COc2cc(N)nc3[nH]nnc23)c1 [Example 154, 3-((5-amino-3H-[1,2,3]triazolo[4,5-b]pyridin-7-yloxy)methyl)-4-fluoro-N-(2-hydroxyethyl)-N-methylbenzamide] | 6.00 to 7.00 |
| CCS(=O)(=O)c1ccc(Cl)cc1COc1cc(N)nc2[nH]nnc12 [Example 227, 7-((5-Chloro-2-(ethylsulfonyl)benzyl)oxy)-3H-[1,2,3]triazolo[4,5-b]pyridin-5-amine, TFA] | 6.00 to 7.00 |
| N#Cc1cc(-c2ccc(N3CCCCC3)nc2)ccc1COc1cc(N)nc2[nH]nnc12 [Example 320, 2-(((5-amino-3H-[1,2,3]triazolo[4,5-b]pyridin-7-yl)oxy)methyl)-5-(6-(piperidin-1-yl)pyridin-3-yl)benzonitrile] | 6.00 to 7.00 |
| Nc1cc(OC(c2ccccc2)C(F)F)c2nn[nH]c2n1 (racemic) [Example 138, 7-(2,2-Difluoro-1-phenylethoxy)-3H-[1,2,3]triazolo[4,5-b]pyridin-5-amine] | 6.00 to 7.00 |
| NC(=O)C1CCN(C(=O)c2ccc(COc3cc(N)nc4[nH]nnc34)c(Cl)c2)CC1 [Example 220, 1-(4-((5-amino-3H-[1,2,3]triazolo [4,5-b]pyridin-7-yloxy)methyl)-3-chlorobenzoyl)piperidine-4-carboxamide] | 6.00 to 7.00 |
| COc1cc(-n2cccn2)ccc1COc1cc(N)nc2[nH]nnc12 [Example 243, 7-((2-Methoxy-4-(1H-pyrazol-1-yl)benzyl)oxy)-3H-[1,2,3]triazolo[4,5-b]pyridin-5-amine] | 7.00 to 9.00 |
| COc1c(COc2cc(N)nc3[nH]nnc23)cccc1-c1ccn(C)n1 [Example 80, 7-(2-Methoxy-3-(1-methyl-1H-pyrazol-3-yl)benzyloxy)-3H-[1,2,3]triazolo[4,5-b]pyridin-5-amine] | 6.00 to 7.00 |
| N#Cc1ccc(OC2CC2)cc1COc1cc(N)nc2[nH]nnc12 [Example 352, 2-(((5-amino-3H-[1,2,3]triazolo[4,5-b]pyridin-7-yl)oxy)methyl)-4-cyclopropoxybenzonitrile] | 7.00 to 9.00 |
| Nc1cc(OCc2cc(C(=O)N3CCCC3)ccc2F)c2nn[nH]c2n1 [Example 152, (3-((5-amino-3H-[1,2,3]triazolo[4,5-b]pyridin-7-yloxy)methyl)-4-fluorophenyl)(pyrrolidin-1-yl)methanone] | 6.00 to 7.00 |

Continued, values first:

| pIC50 | Structure (SMILES) |
| --- | --- |
| 7.00 to 9.00 | CN(C(=O)c1ccc(Cl)c(COc2cc(N)nc3[nH]nnc23)c1)c1ccccc1 [Example 175, 3-((5-amino-3H-[1,2,3]triazolo [4,5-b]pyridin-7-yloxy)methyl)-4-chloro-N-methyl-N-phenylbenzamide] |
| 7.00 to 9.00 | CN(C)S(=O)(=O)c1ccccc1-c1ccc(COc2cc(N)nc3[nH]nnc23)c(Cl)c1 [Example 46, 4′-((5-Amino-3H-[1,2,3]triazolo[4,5-b]pyridin-7-yloxy)methyl)-3′-chloro-N,N-dimethylbiphenyl-2-sulfonamide] |
| 7.00 to 9.00 | Cc1c(Br)cccc1COc1cc(N)nc2[nH]nnc12 [Example 60, 7-(3-Bromo-2-methylbenzyloxy)-3H-[1,2,3]triazolo[4,5-b]pyridin-5-amine] |
| 7.00 to 9.00 | Nc1cc(OCc2c(F)cc(-n3ncc4ccccc43)cc2F)c2nn[nH]c2n1 [Example 281, 7-((2,6-difluoro-4-(1H-indazol-1-yl)benzyl)oxy)-3H-[1,2,3]triazolo[4,5-b]pyridin-5-amine] |
| 7.00 to 9.00 | N#Cc1ccc(-c2cc(F)c(COc3cc(N)nc4[nH]nnc34)c(F)c2)cn1 [Example 338, 5-(4-(((5-amino-3H-[1,2,3]triazolo[4,5-b]pyridin-7-yl)oxy)methyl)-3,5-difluorophenyl) picolinonitrile] |
| 7.00 to 9.00 | COc1ncc(-c2ccc(COc3cc(N)nc4[nH]nnc34)c(C#N)c2)cn1 [Example 314, 2-(((5-amino-3H-[1,2,3]triazolo[4,5-b]pyridin-7-yl)oxy)methyl)-5-(2-methoxypyrimidin-5-yl)benzonitrile] |
| 7.00 to 9.00 | Cc1ccc(-c2cccc(F)c2)cc1COc1cc(N)nc2[nH]nnc12 [Example 65, 7-((3′-Fluoro-4-methylbiphenyl-3-yl)methoxy)-3H-[1,2,3]triazolo[4,5-b]pyridin-5-amine] |
| 7.00 to 9.00 | Nc1cc(OCc2c(F)cc(-c3ccc(N4CCOCC4)nc3)cc2F)c2nn[nH]c2n1 [Example 335, 7-((2,6-difluoro-4-(6-morpholinopyridin-3-yl)benzyl)oxy)-3H-[1,2,3]triazolo[4,5-b] pyridin-5-amine] |
| 7.00 to 9.00 | Nc1cc(OCc2cc(C(F)(F)F)cc(C(F)(F)F)c2)c2nn[nH]c2n1 [Example 29, 7-(3,5-Bis(trifluoromethyl)benzyloxy)-3H-[1,2,3]triazolo[4,5-b]pyridin-5-amine] |
| 7.00 to 9.00 | Cc1c(COc2cc(N)nc3[nH]nnc23)cccc1-n1cncn1 [Example 86, 7-(2-Methyl-3-(1H-1,2,4-triazol-1-yl)benzyloxy)-3H-[1,2,3]triazolo[4,5-b]pyridin-5-amine] |
| 7.00 to 9.00 | Nc1cc(OCc2cccc(-c3ccc(F)cc3)c2)c2nn[nH]c2n1 [Example 95, 7-((4′-Fluorobiphenyl-3-yl)methoxy)-3H-[1,2,3]triazolo[4,5-b]pyridin-5-amine] |
| 7.00 to 9.00 | CC(C)Cn1cc(-c2ccc(F)c(COc3cc(N)nc4[nH]nnc34)c2)cn1 [Example 82, 7-(2-Fluoro-5-(1-isobutyl-1H-pyrazol-4-yl)benzyloxy)-3H-[1,2,3]triazolo[4,5-b]pyridin-5-amine] |
| 7.00 to 9.00 | CNS(=O)(=O)c1ccc(-c2ccc(COc3cc(N)nc4[nH]nnc34)c(OC(F)(F)F)c2)cc1 [Example 286, 4′-(((5-amino-3H-[1,2,3]triazolo[4,5-b]pyridin-7-yl)oxy)methyl)-N-methyl-3′-(trifluoromethoxy)-[1,1′-biphenyl]-4-sulfonamide] |
| 7.00 to 9.00 | Nc1cc(OCc2ccc(-c3ccc(N4CCOCC4)nc3)cc2OC(F)(F)F)c2nn[nH]c2n1 [Example 303, 7-((4-(6-morpholinopyridin-3-yl)-2-(trifluoromethoxy)benzyl)oxy)-3H-[1,2,3] triazolo[4,5-b]pyridin-5-amine] |
